Reference: PMC9516684 (2022)

Legend:
[1] = system: AT (DNA, duplex) ATATATATATAT; experiment: UV-visible absorbance titration 355 nm, Bard fit; details: Na+ (20 mM sodium phosphate), 20 mM sodium phosphate pH 7.0, 298 K, per base
[2] = system: (5′-CCGGATCCGG)2 (AT step) (DNA, duplex) CCGGATCCGG; experiment: UV-visible absorbance titration 355 nm, Bard fit; details: Na+ (20 mM sodium phosphate); 20 mM sodium phosphate pH 7.0, 298 K; site size s 3.5 (±0.7); per base
[3] = system: (5′-CCGGTACCGG)2 (TA step) (DNA, duplex) CCGGTACCGG; experiment: UV-visible absorbance titration 355 nm, Bard fit; details: Na+ (20 mM sodium phosphate); 20 mM sodium phosphate pH 7.0, 298 K; site size s 3.17 (±0.07); per base
[4] = system: (5′-CCGGATCCGG)2 (AT step) (DNA, duplex) CCGGATCCGG; experiment: luminescence titration 750 nm, Bard fit; details: Na+ (20 mM sodium phosphate); 20 mM sodium phosphate pH 7.0, 298 K; s 5.5; caption says luminescence 750 nm, column head 415 nm absorbance; per base
[5] = system: AT (DNA, duplex) ATATATATATAT; experiment: luminescence titration 750 nm, Bard fit; details: Na+ (20 mM sodium phosphate), 20 mM sodium phosphate pH 7.0, 298 K, per base
[6] = system: (5′-CCGGTACCGG)2 (TA step) (DNA, duplex) CCGGTACCGG; experiment: luminescence titration 750 nm, Bard fit; details: Na+ (20 mM sodium phosphate); 20 mM sodium phosphate pH 7.0, 298 K; s 7.6; caption says luminescence 750 nm, column head 415 nm absorbance; per base
[7] = system: AT (DNA, duplex) ATATATATATAT; experiment: UV-visible absorbance titration 415 nm, Bard fit; details: Na+ (20 mM sodium phosphate), 20 mM sodium phosphate pH 7.0, 298 K, per base

Kb ([1]; site size s 4.4 (±0.1)) | Kb ([1]; site size s 5.6 (±0.1)) | Kb [2] | Kb [3] | Kb [4] | Kb ([5]; site size s 4.6 (±0.1)) | Kb ([5]; site size s 7.7 (±0.08)) | Kb [6] | Kb ([5]; site size s 3.8 (±0.1)) | Kb ([5]; site size s 5.0 (±0.1)) | Kb ([7]; site size s 4.5 (±0.1)) | Kb ([7]; site size s 6.0 (±0.2)) | Compound
2.0 (±0.3) × 10^6 M^–1 | 5.0 (±0.8) × 10^6 M^–1 | 3.8 (±1.5) × 10^6 M^–1 | 2.2 (±0.4) × 10^6 M^–1 | 1.0 (±0.2) × 10^6 M^–1 | 4.5 (±1.3) × 10^6 M^–1 | 1.4 (±0.4) × 10^7 M^–1 | 1.4 (±0.3) × 10^6 M^–1 | – | – | – | – | [Os+2].c1cnc2c(ccc3nccnc32)n1.c1cnc2c(ccc3nccnc32)n1.c1cnc2nc3c4cccnc4c4ncccc4c3nc2c1
– | – | – | – | – | – | – | – | 8.5 (±0.5) × 10^6 M^–1 | 1.1 (±0.3) × 10^7 M^–1 | 8.7 (±1.2) × 10^6 M^–1 | 5.1 (±1.6) × 10^6 M^–1 | [Os+2].c1ccc2nc3c4cccnc4c4ncccc4c3nc2c1.c1cnc2c(ccc3nccnc32)n1.c1cnc2c(ccc3nccnc32)n1
